# Entries after “also recorded” stand apart in the source; their conditions may differ.
# Columns and labels:
# [1] = test system: neddylation of cullin 1 and other cullins; experiment: Western blotting of neddylated and un-neddylated cullin 1 and other cullins in cells; format: cell-based
# Excerpt: (§1) Treated cells were lysed by RIPA buffer supplemented with protease and phosphatase inhibitors. The expression level of indicated proteins was examined by immunoblotting analysis. GAPDH was used as the loading control.
# KYSE70 = experiment: Cell viability, WST assay, KYSE70; format: cell-based; conditions: Homo sapiens, KYSE-70, 96 h; KYSE70, t = 4 d
# Procedure: (§2) Supplementary Figure 8: 1
# (§3) […] in a panel of 6 cell lines. (a) The indicated cell lines were treated with MLN4924, 4
# (§4) Cell viability was determined with a WST assay. (b) The 5
# (§5) was determined with a WST assay. 7
# KYSE140 = experiment: Cell viability, WST assay, KYSE140; format: cell-based; conditions: Homo sapiens, KYSE-140, 96 h; KYSE140, t = 4 d
# Procedure: as §2, §3, §4, §5
# THLE2 = experiment: Cell viability, WST assay, THLE2; format: cell-based; conditions: Homo sapiens, THLE-2, 96 h; THLE2, t = 4 d
# Procedure: as §2, §3, §4, §5
# neddylation of cullin 3 = experiment: Western blotting of neddylated and un-neddylated cullin 3 in cells; format: cell-based; conditions: THLE2 liver cells, up to 24 h, MLN4924 0.3 µM
# Excerpt: as §1
# [2] = test system: THLE2 cells and five additional cancer cell lines; experiment: Cell viability, WST assay, panel of 6 cell lines; format: cell-based; conditions: Homo sapiens, THLE-2; 6 different cell lines; read-out: IC50, inhibition of cell viability
# p21, Bim, CDT1 = experiment: Western blotting of cullin 1 and 4A CRL substrates in cells; format: cell-based; conditions: western blot, 24 h
# Excerpt: as §1
# NEDD8 E1 (APP-BP1/Uba3) = target: T1, NEDD8 E1 (APP-BP1/Uba3) (Homo sapiens, UniProt Q8TBC4); experiment: In vitro UBC12~NEDD8 thioester forming assay; format: biochemical; conditions: DI-591 at concentrations up to 100 µM
# T1 construct: purchased Boston Biochem
# T1 sequence (Q8TBC4 1-463): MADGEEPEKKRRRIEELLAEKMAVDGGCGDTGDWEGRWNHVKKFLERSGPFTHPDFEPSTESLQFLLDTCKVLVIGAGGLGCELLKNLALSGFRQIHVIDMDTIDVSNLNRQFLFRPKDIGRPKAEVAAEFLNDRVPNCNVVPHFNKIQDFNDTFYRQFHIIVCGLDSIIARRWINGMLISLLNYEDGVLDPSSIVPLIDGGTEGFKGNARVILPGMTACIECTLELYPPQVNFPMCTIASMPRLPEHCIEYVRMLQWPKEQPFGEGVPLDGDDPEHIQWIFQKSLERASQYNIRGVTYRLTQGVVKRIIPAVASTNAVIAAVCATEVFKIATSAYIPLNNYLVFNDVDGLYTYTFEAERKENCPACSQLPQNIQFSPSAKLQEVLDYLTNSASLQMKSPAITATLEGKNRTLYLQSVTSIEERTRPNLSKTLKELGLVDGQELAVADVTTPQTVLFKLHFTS
# T1 sequence (Q13564 1-534 partner): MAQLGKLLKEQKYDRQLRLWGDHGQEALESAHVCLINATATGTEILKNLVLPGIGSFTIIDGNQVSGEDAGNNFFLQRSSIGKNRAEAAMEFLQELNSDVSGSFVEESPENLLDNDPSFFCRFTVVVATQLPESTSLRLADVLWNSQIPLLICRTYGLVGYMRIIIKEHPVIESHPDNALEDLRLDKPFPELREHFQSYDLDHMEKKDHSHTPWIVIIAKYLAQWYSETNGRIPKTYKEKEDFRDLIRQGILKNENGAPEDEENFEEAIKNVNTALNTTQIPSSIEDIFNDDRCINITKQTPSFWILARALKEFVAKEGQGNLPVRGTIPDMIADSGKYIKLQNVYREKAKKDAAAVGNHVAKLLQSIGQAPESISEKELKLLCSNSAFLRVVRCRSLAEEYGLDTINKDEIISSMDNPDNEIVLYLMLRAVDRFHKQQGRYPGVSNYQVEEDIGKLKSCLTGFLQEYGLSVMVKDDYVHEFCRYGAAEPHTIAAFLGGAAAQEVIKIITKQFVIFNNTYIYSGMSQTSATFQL
# Procedure: NEDD8, NEDD8 E1 (APP-BP1/Uba3) and UBC12 proteins were purchased from Boston Biochem. NEDD8 (10 μM), NEDD8 E1 (25 nM), and UBC12 (2 μM) were incubated in Tris-HCl (pH 7.4, 50 mM), MgCl2 (5 mM), DTT (0.5 mM) and BSA (0.1 mg/ml), with a tested compound at 25 °C for 10 min. Reactions were initiated by addition of 2 mM ATP (or distilled H2O) and ran for 5 min at 25 °C. 1 M DTT (or distilled H2O) was added to the reaction mixtures which were then kept on ice for 1 min followed by addition of SDS loading buffer (without DTT). The products were separated by SDS–PAGE, visualized by Coomassie stain and quantified by ImageLab (Bio-Rad).
# 1 Supplementa ry Figure 3:
# 3 Supplementary Figure 3. In vitro U BC12~N EDD8 thio ester forming assay.N EDD8,
# 4 NEDD8 E1 (APP -BP 1/Uba3) and UBC12 were purchased from Boston Biochem. 10μ M
# 5 NEDD8, 25nM N EDD8 E1,and 2μ M UBC12 were incubated in 50mM Tris-HCl (pH 7.4), 5mM
# 6 M gC l 2, 0.5mM DTT, and 0.1mg/ml BSA, with indicated compounds at 25℃ for 10min.
# 7 Reactions were initiated by addition o f 2mM ATP (or dH2O) and w ere run for 5min at 25℃ .
# 8 Reaction mixtures were t hen added with 1M DTT (or dH 2O) and kept on ice for 1min followed
# 9 by addition of SDS Loading buffer (without DTT). The products were s eparated b y SDS-PAGE,
# 10 visualized by Coomassie stain and quantified using an ImageLab imager ( Bio-Rad). […]
# NRF2 = experiment: Western blotting of NRF2 protein in cells; format: cell-based; conditions: western blot, 24 h
# Excerpt: as §1
# DCN1 = DCN1 (Homo sapiens, UniProt Q96GG9); experiment: Biotinylated protein pull-down assay, KYSE140 cell lysates; format: binding; parameters: endogenous in cells; host or cells: KYSE70; KYSE140
# DCN1, sequence (Q96GG9 whole entry): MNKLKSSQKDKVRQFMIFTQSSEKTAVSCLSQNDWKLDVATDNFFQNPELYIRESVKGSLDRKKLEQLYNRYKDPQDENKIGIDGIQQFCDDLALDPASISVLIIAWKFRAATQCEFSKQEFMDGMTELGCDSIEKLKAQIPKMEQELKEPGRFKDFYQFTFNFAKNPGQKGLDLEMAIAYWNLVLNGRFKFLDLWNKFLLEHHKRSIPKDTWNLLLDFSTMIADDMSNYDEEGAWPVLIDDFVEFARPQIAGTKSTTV
# Procedure: (§6) Complexes formed between the biotinylated DI inhibitor and its targeted proteins were recovered by incubation with Streptavidin-agarose beads (Thermo Scientific Pierce, Waltham, Massachusetts). DCN1 and DCN2 proteins associated with beads were eluted by heating and detected by immunoblotting.
# GAPDH was used as a loading control. […]
# DCN2 = target: T2, DCN2 (Homo sapiens, UniProt Q6PH85); experiment: Competitive FP binding assay with probe 46, DCN2
# T2 construct: DCN2 (residues 62–259), DCN3 (residues 86–304), DCN4 (residues 102–292) and DCN5 (residues 47–237); His6-TEV (N, cleaved yes); made in house; host or cells: Rosetta2 cells (E. coli)
# T2 sequence (Q6PH85 62-259): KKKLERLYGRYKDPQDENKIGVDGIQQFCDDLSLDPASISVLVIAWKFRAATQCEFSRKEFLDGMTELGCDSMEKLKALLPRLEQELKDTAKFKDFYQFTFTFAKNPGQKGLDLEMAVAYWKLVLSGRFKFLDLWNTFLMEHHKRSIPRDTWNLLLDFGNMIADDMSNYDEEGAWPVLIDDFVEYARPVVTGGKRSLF
# Procedure: The FP competitive binding experiments were performed to determine the binding affinities of all synthesized DCN1 inhibitors. […] Serial dilutions of DCN1 or DCN2 protein were mixed with the probe (46) to a final volume of 200 μl in the assay buffer (100 mM phosphate buffer, pH = 6.5, with 0.02% Tween-20 and 2% DMSO). The final probe concentration was 5 nM in both DCN1 and DCN2 assays. Plates were incubated at room temperature for 30 min with gentle shaking for equilibrium.
# The IC50 and Ki values of compounds were determined in competitive binding experiments. Mixtures of compounds in DMSO (4 μl) and of pre-incubated protein/probe complex solution (196 μl) in the assay buffer were added into assay plates that were incubated at room temperature for 30 min with gentle shaking. Final concentrations of DCN1 protein and fluorescent probe (46) were 50 and 5 nM, respectively. […] FP values were measured as described above. IC50 values were determined by nonlinear regression fitting of the competition curves using the dose response inhibition equation (four parameters, variable slopes) included in the Prism/GraphPad software. K i values were calculated using the methods described earlier.
# DCN5 = target: T3, DCN5 (Homo sapiens, UniProt Q9BTE7); experiment: Biochemical assays, binding of 47 to recombinant DCN5 (method not specified); conditions: concentrations up to 10 µM
# T3 construct: DCN2 (residues 62–259), DCN3 (residues 86–304), DCN4 (residues 102–292) and DCN5 (residues 47–237); His6-TEV (N, cleaved yes); made in house; host or cells: Rosetta2 cells (E. coli)
# T3 sequence (Q9BTE7 47-237): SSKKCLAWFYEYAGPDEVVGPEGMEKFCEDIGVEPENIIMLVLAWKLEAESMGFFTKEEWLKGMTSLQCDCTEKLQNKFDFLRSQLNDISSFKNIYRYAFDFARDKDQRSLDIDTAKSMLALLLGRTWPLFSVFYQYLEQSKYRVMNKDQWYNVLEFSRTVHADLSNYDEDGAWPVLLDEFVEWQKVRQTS
# [3] = test system: cellular DCN1 and DCN2 proteins; experiment: Biotinylated protein pull-down assay, KYSE70 cell lysates; format: binding
# Procedure: as §6
# DCN4 = target: T4, DCN4 (Homo sapiens, UniProt Q92564); experiment: Biochemical assays, binding of 47 to recombinant DCN4 (method not specified); conditions: concentrations up to 10 µM
# T4 construct: DCN2 (residues 62–259), DCN3 (residues 86–304), DCN4 (residues 102–292) and DCN5 (residues 47–237); His6-TEV (N, cleaved yes); made in house; host or cells: Rosetta2 cells (E. coli)
# T4 sequence (Q92564 102-292): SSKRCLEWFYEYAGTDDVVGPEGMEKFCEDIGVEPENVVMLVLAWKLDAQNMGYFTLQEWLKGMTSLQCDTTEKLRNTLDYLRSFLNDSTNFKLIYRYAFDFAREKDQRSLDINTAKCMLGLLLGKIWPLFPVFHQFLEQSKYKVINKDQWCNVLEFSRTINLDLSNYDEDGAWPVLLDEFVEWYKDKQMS
# DCN3 = target: T5, DCN3 (Homo sapiens, UniProt Q8IWE4); experiment: Biochemical assays, binding of 47 to recombinant DCN3 (method not specified); conditions: concentrations up to 10 µM
# T5 construct: DCN2 (residues 62–259), DCN3 (residues 86–304), DCN4 (residues 102–292) and DCN5 (residues 47–237); His6-TEV (N, cleaved yes); made in house; host or cells: Rosetta2 cells (E. coli)
# T5 sequence (Q8IWE4 86-304): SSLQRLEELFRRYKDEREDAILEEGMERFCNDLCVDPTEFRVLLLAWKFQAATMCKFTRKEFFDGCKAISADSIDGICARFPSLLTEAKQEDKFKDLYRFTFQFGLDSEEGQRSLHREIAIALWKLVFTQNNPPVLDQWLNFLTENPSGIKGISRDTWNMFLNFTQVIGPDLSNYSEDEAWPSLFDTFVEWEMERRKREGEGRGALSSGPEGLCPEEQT
smiles,measurement,setting,value
NS(=O)(=O)OC[C@@H]1C[C@@H](n2ccc3c(N[C@H]4CCc5ccccc54)ncnc32)C[C@@H]1O [MLN4924],"effect on neddylation of cullin 1, time course (in words)","[1]; THLE2 liver cells, up to 24 h, DI-591 10 µM, MLN4924 0.3 µM",effective
same,concentrations that effectively suppress neddylation of all cullins examined,"[1]; all cullins examined, panel of six cell lines, 24 h",10 to 300 nM
same,EC50,KYSE70,356 nM
same,EC50,KYSE140,65.4 nM
same,EC50,THLE2,53.4 nM
same,"effect on neddylation of cullin 3, time course (in words)",neddylation of cullin 3,effective
same,IC50,[2],50 to 350 nM
same,"protein levels of p21, Bim and CDT1 (in words)","p21, Bim, CDT1",induces accumulation
same,"inhibition of UBC12 neddylation (E1 activity), in words",NEDD8 E1 (APP-BP1/Uba3),effectively inhibits
same,NRF2 protein level (in words),NRF2,induces accumulation; also recorded: much stronger upregulation
CCC(=O)NC(Cc1nc2ccc(C(C)C)cc2s1)C(=O)NC(CNC(=O)C1CCN(CCOCCOCCOCCNC(=O)CCCCC2SCC3NC(=O)NC32)CC1)C1CCCCC1 (stereo not shown) [compound 47],pull-down of DCN1 protein (in words),DCN1,pulls down DCN1 protein
same,Ki,DCN2,3.9 nM
same,binding to recombinant DCN5 (in words),DCN5,no appreciable binding
same,pull-down of cellular DCN1 and DCN2 proteins (in words),[3],efficiently pulls down
same,binding to recombinant DCN4 (in words),DCN4,no appreciable binding
same,binding to recombinant DCN3 (in words),DCN3,no appreciable binding

# — article PMC5658359, “A potent small-molecule inhibitor of the DCN1-UBC12 interaction that selectively blocks cullin 3 neddylation” (Nature Communications, 2017)
